# Target: T1, human TRPA1 (Homo sapiens, UniProt O75762)
# T1 construct: expressed in transfected cells; host or cells: CHO cells
# Assay: TRPA1 FLIPR Tetra calcium influx assay in CHO cells (block of cinnamaldehyde-induced calcium influx)
# Type: cell-based
# Details: Table 2; CHO cells expressing TRPA1; agonist cinnamaldehyde 75 uM; 20 min compound incubation; Hill coefficient fixed to 1.5; read-out: hTRPA1 CHO Ca2+ AUC EVO (IC50)
# Method: IC50s (effective concentration) of compounds on the human and rat TRPA1 channels were determined using a FLIPR Tetra instrument. CHO cells expressing TRPA1 were plated into 384-well plates, incubated overnight at 37 C, and loaded with BD calcium indicator dye for 1 hr at 37° C. followed by 15 minutes at room temperature. The assay buffer was Hank's Balanced Salt Solution (HBSS) containing 20 mM HEPES (pH readjusted to 7.4) along with 0.02% BSA.
# Following dye load and plate cool down, compounds were added to the cells using FLIPR Tetra. Plates were then incubated with compounds for 20 minutes at room temperature prior to adding agonist. Following this incubation, ˜EC80 concentration of cinnamaldehyde (75 uM for human TRPA1 and 45 uM for rat TRPA1) was added to active the channels and block of cinnamaldehyde induced calcium influx was measured.
# IC50s were fit with a standard Hill function, keeping the Hill coefficient (n) fixed to 1.5. Fixing the Hill coefficient will generally reduce variability of the IC50 determination. The IC50s were individually examined to make sure the MIN and MAX points were set correctly prior to validation of the results.
# T1 sequence (O75762 whole entry): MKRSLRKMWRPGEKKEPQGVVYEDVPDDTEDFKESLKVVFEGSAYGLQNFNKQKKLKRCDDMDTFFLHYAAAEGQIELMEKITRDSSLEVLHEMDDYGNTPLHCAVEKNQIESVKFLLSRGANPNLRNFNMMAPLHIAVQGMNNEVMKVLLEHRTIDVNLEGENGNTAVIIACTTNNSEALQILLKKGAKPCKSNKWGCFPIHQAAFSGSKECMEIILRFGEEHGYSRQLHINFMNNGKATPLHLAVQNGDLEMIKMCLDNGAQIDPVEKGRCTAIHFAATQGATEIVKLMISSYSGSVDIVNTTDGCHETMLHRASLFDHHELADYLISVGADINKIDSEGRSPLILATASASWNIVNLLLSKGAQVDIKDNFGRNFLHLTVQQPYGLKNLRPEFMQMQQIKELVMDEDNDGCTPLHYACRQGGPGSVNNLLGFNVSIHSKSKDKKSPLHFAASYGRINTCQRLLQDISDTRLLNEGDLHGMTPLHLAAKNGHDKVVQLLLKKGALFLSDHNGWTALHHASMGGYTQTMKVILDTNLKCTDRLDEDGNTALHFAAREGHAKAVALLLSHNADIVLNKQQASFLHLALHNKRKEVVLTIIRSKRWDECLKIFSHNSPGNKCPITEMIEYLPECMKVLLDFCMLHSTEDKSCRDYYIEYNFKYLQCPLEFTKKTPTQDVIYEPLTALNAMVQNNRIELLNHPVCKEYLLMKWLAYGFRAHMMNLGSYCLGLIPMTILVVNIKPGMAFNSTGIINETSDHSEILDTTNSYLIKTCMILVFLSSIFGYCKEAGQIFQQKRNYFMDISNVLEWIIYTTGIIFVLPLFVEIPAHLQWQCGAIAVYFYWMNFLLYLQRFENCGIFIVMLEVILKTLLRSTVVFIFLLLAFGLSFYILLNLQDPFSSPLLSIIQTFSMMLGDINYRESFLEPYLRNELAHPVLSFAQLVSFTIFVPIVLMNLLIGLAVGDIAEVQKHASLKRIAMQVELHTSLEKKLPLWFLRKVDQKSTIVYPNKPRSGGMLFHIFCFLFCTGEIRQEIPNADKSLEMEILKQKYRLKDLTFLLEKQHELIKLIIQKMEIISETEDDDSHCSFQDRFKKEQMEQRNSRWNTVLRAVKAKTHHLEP
row,Compound,IC50
1,"O=C(NCc1cc(-c2cnc(C(F)(F)F)nc2)ccc1F)[C@@H]1C[C@@H]2C[C@@H]2N1S(=O)(=O)c1ccc(F)cc1 [Example 16, (1S,3S,5S)-2-(4-fluorophenyl)sulfonyl-N-[[2-fluoro-5-[2-(trifluoromethyl)pyrimidin-5-yl]phenyl]methyl]-2-azabicyclo[3.1.0]hexane-3-carboxamide]",0.00212 µM
2,"C[C@H]1CC[C@@H](C(=O)NCc2cc(-c3cnc(C(F)(F)F)nc3)ncc2F)N1S(=O)(=O)c1ccc(F)cc1 [Example 17, (2S,5S)-1-(4-fluorophenyl)sulfonyl-N-[[5-fluoro-2-[2-(trifluoromethyl)pyrimidin-5-yl]-4-pyridyl]methyl]-5-methyl-pyrrolidine-2-carboxamide]",0.00137 µM
3,"O=C(NCc1cc(-c2cnc(C(F)(F)F)nc2)ncn1)[C@@H]1C[C@@H]2C[C@@H]2N1S(=O)(=O)c1ccc(F)cc1 [Example 18, (1S,3S,5S)-2-(4-fluorophenyl)sulfonyl-N-[[6-[2-(trifluoromethyl)pyrimidin-5-yl]pyrimidin-4-yl]methyl]-2-azabicyclo[3.1.0]hexane-3-carboxamide]",0.0298 µM
4,"C[C@H]1CC[C@@H](C(=O)NCc2cc(-c3cnc(C(F)(F)F)nc3)ncn2)N1S(=O)(=O)c1ccc(F)cc1 [Example 19, (2S,5S)-1-(4-fluorophenyl)sulfonyl-5-methyl-N-[[6-[2-(trifluoromethyl)pyrimidin-5-yl]pyrimidin-4-yl]methyl]pyrrolidine-2-carboxamide]",0.00522 µM
5,"CC[C@H]1CC[C@@H](C(=O)NCc2cc(-c3cnc(C(F)(F)F)nc3)ncn2)N1S(=O)(=O)c1ccc(F)cc1 [Example 20, (2S,5S)-5-ethyl-1-(4-fluorophenyl)sulfonyl-N-[[6-[2-(trifluoromethyl)pyrimidin-5-yl]pyrimidin-4-yl]methyl]pyrrolidine-2-carboxamide]",0.0109 µM
6,"O=C(NCc1cc(-c2cnc(C(F)(F)F)nc2)ncn1)[C@@H]1CC[C@H](C2CC2)N1S(=O)(=O)c1ccc(F)cc1 [Example 21, (2S,5R)-5-cyclopropyl-1-(4-fluorophenyl)sulfonyl-N-[[6-[2-(trifluoromethyl)pyrimidin-5-yl]pyrimidin-4-yl]methyl]pyrrolidine-2-carboxamide]",0.0713 µM
7,"O=C(NCc1cc(-c2cnc(C(F)(F)F)nc2)ncn1)[C@H]1CC[C@@H](C(F)(F)F)N1S(=O)(=O)c1ccc(F)cc1 [Example 22, (2R,5S)-1-(4-fluorophenyl)sulfonyl-5-(trifluoromethyl)-N-[[6-[2-(trifluoromethyl)pyrimidin-5-yl]pyrimidin-4-yl]methyl]pyrrolidine-2-carboxamide]",3.61 µM
8,"C[C@H]1[C@H](F)C[C@@H](C(=O)NCc2cc(-c3ccc(C(F)(F)F)nc3)ncn2)N1S(=O)(=O)c1ccc(F)cc1 [Example 23, (2S,4R,5S)-4-fluoro-1-(4-fluorophenyl)sulfonyl-5-methyl-N-[[6-[6-(trifluoromethyl)-3-pyridyl]pyrimidin-4-yl]methyl]pyrrolidine-2-carboxamide]",0.0856 µM
9,"C[C@H]1[C@H](F)C[C@@H](C(=O)NCc2cc(-c3cnc(C(F)(F)F)nc3)ncc2OC(F)F)N1S(=O)(=O)c1ccc(F)cc1 [Example 24, (2S,4R,5S)-N-((5-(difluoromethoxy)-2-(2-(trifluoromethyl)pyrimidin-5-yl)pyridin-4-yl)methyl)-4-fluoro-1-(4-fluorophenylsulfonyl)-5-methylpyrrolidine-2-carboxamide]",0.0193 µM
10,"C[C@H]1[C@H](F)C[C@@H](C(=O)NCc2cc(N3CC(OC(F)(F)F)C3)ncn2)N1S(=O)(=O)c1ccc(F)cc1 [Example 25, (2S,4R,5S)-4-fluoro-1-(4-fluorophenylsulfonyl)-5-methyl-N-((6-(3-(trifluoromethoxy)azetidin-1-yl)pyrimidin-4-yl)methyl)pyrrolidine-2-carboxamide]",2.4 µM
11,"C[C@H]1[C@H](F)C[C@@H](C(=O)NCc2cc(-c3ccc(C(F)(F)F)nc3)ncc2F)N1S(=O)(=O)c1ccc(F)cc1 [Example 26, (2S,4R,5S)-4-fluoro-N-((5-fluoro-6′-(trifluoromethyl)-2,3′-bipyridin-4-yl)methyl)-1-(4-fluorophenylsulfonyl)-5-methylpyrrolidine-2-carboxamide]",0.0412 µM
12,"C[C@H]1[C@H](F)C[C@@H](C(=O)NCc2cc(-c3cnc(C(F)(F)F)nc3)ncc2F)N1S(=O)(=O)c1ccccc1 [Example 27, (2S,4R,5S)-4-fluoro-N-((5-fluoro-2-(2-(trifluoromethyl)pyrimidin-5-yl)pyridin-4-yl)methyl)-5-methyl-1-(phenylsulfonyl)pyrrolidine-2-carboxamide]",0.0464 µM
13,"C[C@H]1[C@H](F)C[C@@H](C(=O)NCc2cc(-c3cnc(C(F)(F)F)nc3)ncc2F)N1S(=O)(=O)c1ccc(F)c(F)c1 [Example 28, (2S,4R,5S)-1-(3,4-difluorophenylsulfonyl)-4-fluoro-N-((5-fluoro-2-(2-(trifluoromethyl)pyrimidin-5-yl)pyridin-4-yl)methyl)-5-methylpyrrolidine-2-carboxamide]",0.00696 µM
14,"C[C@H]1[C@H](F)C[C@@H](C(=O)NCc2cc(-c3cnc(C(F)(F)F)nc3)ccn2)N1S(=O)(=O)c1ccc(F)cc1 [Example 29, (2S,4R,5S)-4-fluoro-1-(4-fluorophenylsulfonyl)-5-methyl-N-((4-(2-(trifluoromethyl)pyrimidin-5-yl)pyridin-2-yl)methyl)pyrrolidine-2-carboxamide]",0.113 µM
15,"C[C@H]1[C@H](F)C[C@@H](C(=O)NCc2cc(-c3cnc(C(F)(F)F)nc3)c(F)cc2C#N)N1S(=O)(=O)c1ccc(F)cc1 [Example 30, (2S,4R,5S)-N-(2-cyano-4-fluoro-5-(2-(trifluoromethyl)pyrimidin-5-yl)benzyl)-4-fluoro-1-(4-fluorophenylsulfonyl)-5-methylpyrrolidine-2-carboxamide]",0.00865 µM
16,"C[C@H]1[C@H](F)C[C@@H](C(=O)NCc2cc(-c3ccc(C(F)(F)F)cn3)ccn2)N1S(=O)(=O)c1ccc(F)cc1 [Example 31, (2S,4R,5S)-4-fluoro-1-(4-fluorophenylsulfonyl)-5-methyl-N-((5-(trifluoromethyl)-2,4′-bipyridin-2′-yl)methyl)pyrrolidine-2-carboxamide]",0.0587 µM
17,"C[C@H]1[C@H](F)C[C@@H](C(=O)NCc2cc(-c3cnc(C(F)(F)F)nc3)c(Cl)cn2)N1S(=O)(=O)c1ccc(F)cc1 [Example 32, (2S,4R,5S)-N-((5-chloro-4-(2-(trifluoromethyl)pyrimidin-5-yl)pyridin-2-yl)methyl)-4-fluoro-1-(4-fluorophenylsulfonyl)-5-methylpyrrolidine-2-carboxamide]",0.0104 µM
18,"C[C@H]1[C@H](F)C[C@@H](C(=O)NCc2cc(-c3cnc(C(F)(F)F)nc3)ccc2C#N)N1S(=O)(=O)c1ccc(F)cc1 [Example 33, (2S,4R,5S)-N-([2-cyano-5-[2-(trifluoromethyl)pyrimidin-5-yl]phenyl]methyl)-4-fluoro-1-[(4-fluorobenzene)sulfonyl]-5-methylpyrrolidine-2-carboxamide]",0.00358 µM
19,"C[C@H]1[C@H](F)C[C@@H](C(=O)NCc2cc(-c3cnc(C(F)(F)F)nc3)c(F)cn2)N1S(=O)(=O)c1ccc(F)cc1 [Example 34, (2S,4R,5S)-4-fluoro-N-([5-fluoro-4-[2-(trifluoromethyl)pyrimidin-5-yl]pyridin-2-yl]methyl)-1-[(4-fluorobenzene)sulfonyl]-5-methylpyrrolidine-2-carboxamide]",0.0388 µM
20,"COc1cnc(CNC(=O)[C@@H]2C[C@@H](F)[C@H](C)N2S(=O)(=O)c2ccc(F)cc2)cc1-c1cnc(C(F)(F)F)nc1 [Example 35, (2S,4R,5S)-4-fluoro-1-[(4-fluorobenzene)sulfonyl]-N-([5-methoxy-4-[2-(trifluoromethyl)pyrimidin-5-yl]pyridin-2-yl]methyl)-5-methylpyrrolidine-2-carboxamide]",0.0531 µM
21,"C[C@H]1[C@H](F)C[C@@H](C(=O)NCc2cc(-c3ccc(C(F)(F)F)nc3)c(F)cn2)N1S(=O)(=O)c1ccc(F)cc1 [Example 36, (2S,4R,5S)-4-fluoro-N-([5-fluoro-4-[6-(trifluoromethyl)pyridin-3-yl]pyridin-2-yl]methyl)-1-[(4-fluorobenzene)sulfonyl]-5-methylpyrrolidine-2-carboxamide]",0.026 µM
22,"C[C@H]1[C@H](F)C[C@@H](C(=O)NCc2cc(-c3cnc(C(F)(F)F)nc3)nc(C3CC3)n2)N1S(=O)(=O)c1ccc(F)cc1 [Example 37, (2S,4R,5S)-N-([2-cyclopropyl-6-[2-(trifluoromethyl)pyrimidin-5-yl]pyrimidin-4-yl]methyl)-4-fluoro-1-[(4-fluorobenzene)sulfonyl]-5-methylpyrrolidine-2-carboxamide]",0.0054 µM
23,"C[C@H]1[C@H](F)C[C@@H](C(=O)NCc2ccnc(-c3cnc(C(F)(F)F)nc3)c2)N1S(=O)(=O)c1ccc(F)cc1 [Example 38, (4R,5S)-4-fluoro-1-[(4-fluorobenzene)sulfonyl]-5-methyl-N-([2-[2-(trifluoromethyl)pyrimidin-5-yl]pyridin-4-yl]methyl)pyrrolidine-2-carboxamide]",0.0694 µM
24,"C[C@H]1[C@H](F)C[C@@H](C(=O)NCc2cc(-c3cnc(C(F)(F)F)nc3)ncc2F)N1S(=O)(=O)c1ccncc1 [Example 39, (2S,4R,5S)-4-fluoro-N-((5-fluoro-2-(2-(trifluoromethyl)pyrimidin-5-yl)pyridin-4-yl)methyl)-5-methyl-1-(pyridin-4-ylsulfonyl)pyrrolidine-2-carboxamide]",0.63 µM
